{"source": "patent US8722343B2", "about": "“Methods and compositions for the diagnosis and treatment of diabetes” (priority 2008, dated 2014)", "test": "MTT cell viability assay in βTC3 cells", "format": "cell-based, mouse", "conditions": "mouse; 0.05 mM DHK, five days; read-out: decrease in RGR (βTC3 viability)", "experimental": "1A: Glutamate induces a dose-dependent beta-cell death. 24 hrs after plating, αTC1 and βTC3 cells were incubated for five days with the indicated glutamate concentrations and viability was assessed by MTT assay. Data are presented as % Relative Growth Rate (RGR) versus controls (100%) and represent the mean±SE of at least 7 independent experiments (n=6). * p<0.01 vs ctrl; ° p<0.01 vs Glu 5 mM in αTC1.\n1C: β-cell death is prevented by pharmacological inhibition of ionotropic channels. 24 hrs after plating, αTC1 and βTC3 cells were incubated for five days with 0.025 mM CNQX (left panel) or 0.1 mM APV (right panel), in the presence or the absence of 5 mM glutamate and viability was assessed by MTT assay. Data are presented as % RGR versus control samples (100%) and represent the mean±SE of three independent experiments (n=5). * p<0.05\n6B. MTT assay. 24 hrs after plating, αTC1 and βTC3 cells were incubated for five days with different DHK concentrations and viability was assessed by MTT assay. Data are presented as % RGR versus control (100%) and represent the mean±SE of three independent experiments (n=8). * (DHK versus control) p<0.05\n8B: MTT assay: 24 hrs after plating, βTC3 cells were incubated for five days with the indicated ceftriaxone concentrations in the presence or absence of 5 mM glutamate and viability was assayed by MTT assay. Data are presented as % RGR versus control (100%) and represent the mean±SE of three independent experiments (n=8). *(ceftriaxone versus relative control) p<0.05.\nβTC3 and αTC1 cells were derived from progeny of transgenic mice expressing SV40 large T-antigen under control of the rat insulin II 5′-flanking region or rat preproglucagon 5′-flanking region, respectively (Powers et al, 1990) and were originally provided by Douglas Hanahan (Department of Biochemistry and Biophysics, University of California, San Francisco, Calif.). βTC3 were grown in RPMI 1640 11 mM glucose, supplemented with 10% heat inactivated fetal bovine serum, 2 mM L-glutamine, and 100 IU/ml streptomycin/penicillin, as previously described (Galbiati et al, 2002). Experiments were performed between the 27 and 33 passage of cell culture.\n3-(4,5-Dimethylthiazol-2-yl)-2,5-diphenyltetrazolium bromide (MTT) assay. βTC3 cells were seeded at a density of 8×10^3 cells/well onto 96-well culture plates. Cells were allowed to attach and grow for 24 h in standard medium. Then medium was replaced with fresh medium containing glutamate, DHK (Dihydrokainic Acid, Sigma Aldrich), glutamate receptor inhibitors APV and CNQX (Sigma Aldrich) or ceftriaxone (Sigma Aldrich) at the indicated concentrations. […] Coloured formazan product was determined spectrophotometrically at 540 nm. 20 islets/tube were used to assess viability in human isolated islets. Data are expressed as % Relative Growth Rate (% RGR) versus control samples."}
{"smiles": "CC(C)[C@H]1CN[C@H](C(=O)O)[C@H]1CC(=O)O", "note": "[DHK, Dihydrokainic Acid]", "values": [{"measurement": "cytotoxicity at 5 days, 0.05 mM", "value": 6.17, "unit": "%"}]}
